Experimental data reported in the NIST ThermoML archive (doi:10.1021/je4009238).

Columns and labels:
[1] = xn = mol fraction of the nth substance listed; settings: 101 kPa, Liquid
[2] = refractive index (Na D-line) (dimensionless); xn = mol fraction of the nth substance listed; settings: 101 kPa, Liquid
[3] = 101 kPa, Liquid
[4] = refractive index (Na D-line) (dimensionless); settings: 101.33 kPa, Liquid

CN(C)C=O [dimethylformamide] + CCCCn1cc[n+](C)c1.[Cl-]
x2 = 0
Settings | mass density, [1] [kg/m3] | refractive index, [2] | viscosity, [1] [mPa·s]
288.15 K | 953.79 | 1.43304 | 0.936
298.15 K | 944.26 | 1.42858 | 0.825
308.15 K | 934.69 | 1.42381 | 0.736
318.15 K | 925.16 | 1.41909 | 0.665

CN(C)C=O [dimethylformamide] + CCCCCCCC[n+]1ccn(C)c1.[Cl-]
x2 = 0
Settings | mass density, [1] [kg/m3] | refractive index, [2] | viscosity, [1] [mPa·s]
288.15 K | 953.79 | 1.43304 | 0.936
298.15 K | 944.26 | 1.42858 | 0.825
308.15 K | 934.69 | 1.42381 | 0.736
318.15 K | 925.16 | 1.41909 | 0.665

CCCCCCn1cc[n+](C)c1.[Cl-] [1-hexyl-3-methylimidazolium chloride] + CN(C)C=O
Settings | mass density, [1] [kg/m3] | refractive index, [2] | viscosity, [1] [mPa·s]
288.15 K, x1 = 0.0312 | 964.44 | 1.44088 | 1.271
288.15 K, x1 = 0.0646 | 973.48 | 1.44818 | 1.715
288.15 K, x1 = 0.102 | 982 | 1.45488 | 2.392
288.15 K, x1 = 0.1456 | 990.33 | 1.46175 | 4.166
288.15 K, x1 = 0.196 | 998.49 | 1.46836 | 6.28
288.15 K, x1 = 0.2502 | 1005.77 | 1.47473 | 10.77
288.15 K, x1 = 0.3144 | 1013.08 | 1.4808 | 17.98
288.15 K, x1 = 0.3893 | 1020.04 | 1.48693 | 32.59
288.15 K, x1 = 0.4796 | 1026.84 | 1.49278 | 65.31
288.15 K, x1 = 0.591 | 1033.55 | 1.49886 | 134.94
288.15 K, x1 = 0.7249 | 1039.53 | 1.50429 | 232.47
288.15 K, x1 = 1 | 1047.99 | 1.5125 | –
298.15 K, x1 = 0.0312 | 955.32 | 1.43634 | 1.097
298.15 K, x1 = 0.0646 | 964.62 | 1.44359 | 1.451
298.15 K, x1 = 0.102 | 973.43 | 1.45059 | 2.064
298.15 K, x1 = 0.1456 | 982.06 | 1.45751 | 2.874
298.15 K, x1 = 0.196 | 990.57 | 1.46433 | 4.815
298.15 K, x1 = 0.2502 | 998.08 | 1.47086 | 7.927
298.15 K, x1 = 0.3144 | 1005.74 | 1.47702 | 12.52
298.15 K, x1 = 0.3893 | 1012.97 | 1.48213 | 21.49
298.15 K, x1 = 0.4796 | 1019.96 | 1.48933 | 40.25
298.15 K, x1 = 0.591 | 1026.93 | 1.49567 | 76.98
298.15 K, x1 = 0.7249 | 1033.24 | 1.50108 | 178.3
298.15 K, x1 = 1 | 1042.2 | 1.50953 | –
308.15 K, x1 = 0.0312 | 946.13 | 1.43187 | 0.961
308.15 K, x1 = 0.0646 | 955.75 | 1.43909 | 1.249
308.15 K, x1 = 0.102 | 964.86 | 1.44632 | 1.733
308.15 K, x1 = 0.1456 | 973.81 | 1.4533 | 2.348
308.15 K, x1 = 0.196 | 982.59 | 1.46038 | 3.817
308.15 K, x1 = 0.2502 | 990.42 | 1.46695 | 6.056
308.15 K, x1 = 0.3144 | 998.35 | 1.47335 | 9.115
308.15 K, x1 = 0.3893 | 1005.87 | 1.47856 | 15.08
308.15 K, x1 = 0.4796 | 1013.14 | 1.48595 | 26.46
308.15 K, x1 = 0.591 | 1020.36 | 1.49237 | 47.62
308.15 K, x1 = 0.7249 | 1026.94 | 1.49797 | 75.17
308.15 K, x1 = 1 | 1036.43 | 1.50667 | 2044.2
318.15 K, x1 = 0.0312 | 936.91 | 1.42765 | 0.852
318.15 K, x1 = 0.0646 | 946.92 | 1.43468 | 1.091
318.15 K, x1 = 0.102 | 956.28 | 1.44219 | 1.489
318.15 K, x1 = 0.1456 | 965.63 | 1.44909 | 1.957
318.15 K, x1 = 0.196 | 974.62 | 1.45652 | 3.113
318.15 K, x1 = 0.2502 | 982.82 | 1.46293 | 4.77
318.15 K, x1 = 0.3144 | 990.96 | 1.46974 | 6.88
318.15 K, x1 = 0.3893 | 998.8 | 1.47497 | 10.95
318.15 K, x1 = 0.4796 | 1006.38 | 1.48264 | 18.37
318.15 K, x1 = 0.591 | 1013.87 | 1.48916 | 31.33
318.15 K, x1 = 0.7249 | 1020.7 | 1.49498 | 47.69
318.15 K, x1 = 1 | 1030.62 | 1.5039 | 884.2

CN(C)C=O [dimethylformamide]
Settings | mass density, [3] [kg/m3] | refractive index, [4] | viscosity, [3] [mPa·s]
288.15 K | 953.79 | 1.43304 | 0.936
298.15 K | 944.26 | 1.42858 | 0.825
308.15 K | 934.69 | 1.42381 | 0.736
318.15 K | 925.16 | 1.41909 | 0.665

CN(C)C=O [dimethylformamide] + CCn1cc[n+](C)c1.[Cl-]
x2 = 0
Settings | mass density, [1] [kg/m3] | refractive index, [2] | viscosity, [1] [mPa·s]
288.15 K | 953.79 | 1.43304 | 0.936
298.15 K | 944.26 | 1.42858 | 0.825
308.15 K | 934.69 | 1.42381 | 0.736
318.15 K | 925.16 | 1.41909 | 0.665

CN(C)C=O [dimethylformamide] + CCCCCCn1cc[n+](C)c1.[Cl-]
x2 = 0
Settings | mass density, [1] [kg/m3] | refractive index, [2] | viscosity, [1] [mPa·s]
288.15 K | 953.79 | 1.43304 | 0.936
298.15 K | 944.26 | 1.42858 | 0.825
308.15 K | 934.69 | 1.42381 | 0.736
318.15 K | 925.16 | 1.41909 | 0.665

CCCCCCCC[n+]1ccn(C)c1.[Cl-] [1-methyl-3-octylimidazolium chloride] + CN(C)C=O
Settings | mass density, [1] [kg/m3] | refractive index, [2] | viscosity, [1] [mPa·s]
288.15 K, x1 = 0.0306 | 962.61 | 1.4392 | 1.617
288.15 K, x1 = 0.0647 | 970.04 | 1.44535 | 2.007
288.15 K, x1 = 0.1021 | 976.96 | 1.4504 | 2.763
288.15 K, x1 = 0.1457 | 983.52 | 1.45598 | 4.132
288.15 K, x1 = 0.1939 | 989.54 | 1.46074 | 5.958
288.15 K, x1 = 0.2496 | 995.13 | 1.46531 | 8.425
288.15 K, x1 = 0.3143 | 1000.4 | 1.46967 | 13.28
288.15 K, x1 = 0.39 | 1005.26 | 1.47407 | 20.46
288.15 K, x1 = 0.4809 | 1009.79 | 1.47791 | 34.23
288.15 K, x1 = 0.5908 | 1013.76 | 1.48169 | 60.63
288.15 K, x1 = 0.7259 | 1017.15 | 1.48534 | 122.33
288.15 K, x1 = 1 | 1022.06 | 1.49008 | –
298.15 K, x1 = 0.0306 | 953.41 | 1.43459 | 1.348
298.15 K, x1 = 0.0647 | 961.21 | 1.44113 | 1.629
298.15 K, x1 = 0.1021 | 968.34 | 1.44613 | 2.262
298.15 K, x1 = 0.1457 | 975.24 | 1.45203 | 3.234
298.15 K, x1 = 0.1939 | 981.46 | 1.45641 | 4.582
298.15 K, x1 = 0.2496 | 987.32 | 1.46173 | 6.215
298.15 K, x1 = 0.3143 | 992.89 | 1.46588 | 9.498
298.15 K, x1 = 0.39 | 997.98 | 1.47066 | 14.03
298.15 K, x1 = 0.4809 | 1002.82 | 1.47429 | 22.18
298.15 K, x1 = 0.5908 | 1006.97 | 1.47835 | 37.33
298.15 K, x1 = 0.7259 | 1010.6 | 1.48212 | 69.31
298.15 K, x1 = 1 | 1015.97 | 1.48709 | –
308.15 K, x1 = 0.0306 | 944.19 | 1.43007 | 1.172
308.15 K, x1 = 0.0647 | 952.27 | 1.4361 | 1.448
308.15 K, x1 = 0.1021 | 959.68 | 1.44189 | 1.909
308.15 K, x1 = 0.1457 | 966.87 | 1.44766 | 2.615
308.15 K, x1 = 0.1939 | 973.37 | 1.45241 | 3.636
308.15 K, x1 = 0.2496 | 979.5 | 1.45731 | 4.753
308.15 K, x1 = 0.3143 | 985.36 | 1.46212 | 7.07
308.15 K, x1 = 0.39 | 990.69 | 1.46672 | 10.12
308.15 K, x1 = 0.4809 | 995.8 | 1.47089 | 15.15
308.15 K, x1 = 0.5908 | 1000.19 | 1.47504 | 24.36
308.15 K, x1 = 0.7259 | 1004.44 | 1.47897 | 43.04
308.15 K, x1 = 1 | 1009.8 | 1.48413 | 155.03
318.15 K, x1 = 0.0306 | 934.98 | 1.42562 | 1.013
318.15 K, x1 = 0.0647 | 943.27 | 1.43143 | 1.289
318.15 K, x1 = 0.1021 | 951.06 | 1.438 | 1.661
318.15 K, x1 = 0.1457 | 958.48 | 1.44342 | 2.182
318.15 K, x1 = 0.1939 | 965.3 | 1.44849 | 2.97
318.15 K, x1 = 0.2496 | 971.71 | 1.45347 | 3.753
318.15 K, x1 = 0.3143 | 977.79 | 1.4586 | 5.427
318.15 K, x1 = 0.39 | 983.45 | 1.46306 | 7.536
318.15 K, x1 = 0.4809 | 988.76 | 1.46765 | 10.77
318.15 K, x1 = 0.5908 | 993.39 | 1.47179 | 16.68
318.15 K, x1 = 0.7259 | 997.95 | 1.47589 | 28.25
318.15 K, x1 = 1 | 1003.62 | 1.48122 | 65.95
